How the values were obtained:
Snail = test: EMT inhibitory effect by inhibition of Snail expression (immunoblotting) in MCF7 cells; assay type: cell-based, human; details: MCF7, 48 hours, untreated control = 100%
Protocol: Cells undergoing EMT owing to various cytokines and growth factors can acquire motility and thus move a distance to form tumors in new tissues. Therefore, the metastasis of cancer cells can be inhibited by controlling expression of EMT-related transcription factors to hinder EMT. Based on these facts, the activities of biguanide derivatives that inhibit Snail expression, which is a transcription factor inducing EMT in the MCF7 cell line derived from human breast cancer, were measured and simple experimental methods are described, as follows.
MCF7 cells derived from human breast cancer (commercially available from Korean Cell Line Bank) were cultured in a DMEM medium supplemented with 10% (v/v) fetal bovine serum (commercially available from Gibco Life Technologies (US)), put into a 6-well plate so that the number of cultured cells could amount to approximately 5×10^5 cells per well, and then incubated in an incubator supplied with 5% CO2 (culture temperature: 37° C., pH: 7.0 to 7.4). The culture media were treated with phenformin hydrochloride and the compounds synthesized in the examples at contents of 1 μM and 10 μM, respectively, and then incubated for 48 hours. Metformin hydrochloride was used as the control, and the cells were treated with 1 mM and 10 mM metformin hydrochloride. After 48 hours, the cells were lysed in a cell lysis buffer containing 10 mM Tris HCl (pH7.4), 100 mM NaCl, 1 mM EDTA, 1 mM EGTA, 1 mM NaF, 20 mM Na4P2O7, 2 mM Na3VO4, 1% TritonX-100, 10% glycerol, 0.5% deoxycholate and 1 mM PMSF. Then, 25 μg of the cell lysate was electrophoresized in an SDS-PAGE gel, and then transferred to a […] membrane (commercially available from Amersham Life Science). The membrane reacted with rat monoclonal anti-human Snail (commercially available from Cell signaling Technology) or mouse monoclonal anti-β-actin (commercially available from Santa cruz Biotechnology), and unbound antibodies were removed. In this case, anti-β-actin was used as the antibody to ensure that the amount of proteins loaded into the SDS-PAGE gel is identical. The membrane was reacted again with a secondary antibody, anti-rat IgG (commercially available from Cell signaling Technology) or anti-mouse IgG (commercially available from Santa Cruz Biotechnology). Finally, the antibody bound to the membrane was detected using an ECL Plus system (commercially available from Amersham Life Science). Also, the expression level of Snail with respect to β-actin was analyzed using a Scion image analysis program. Here, when it was assumed that the expression level of the untreated control was 100%, the expression level of the Snail by treatment with the compounds synthesized in the examples was indicated as a percentage (%).

[1] = Solubility in water of hydrochloride and acetate salts; assay type: physicochemical; details: content 5 mg/1 ml distilled water, room temperature
Protocol: The solubilities in water of the hydrochlorides prepared in Examples 26, 27, 32, 33, 48, 49, 53 and 54, and the solubilities in water of the acetates prepared in Examples 70 to 77, were compared.
The experimental conditions and methods are described, as follows.
1) 1 ml of distilled water is added to a container including 5 mg of salt at room temperature.
2) The resulting mixture is stirred for 10 minutes, and then kept at room temperature for 1 hour.
3) Undissolved residual salt is recovered and weighed.
4) The ratio of the amount of the recovered salt and the amount of the dissolved salt is calculated.
5) Operations 1) to 4) are repeatedly performed with increasing amount (i.e., 10, 15, 20, 25 and 30 mg) of salt.
The experimental procedures were performed for each of the hydrochlorides of Examples 26, 27, 32, 33, 48, 49, 53 and 54 and the acetates of Examples 70 to 77. The comparative solubilities obtained using the hydrochlorides of Examples 26, 27, 32, 33, 48, 49, 53 and 54 and the acetates of Examples 70 to 77 are listed in the following Table 1.

Structure (SMILES) | Snail Expression Rate (%) (Snail; 1 μM) | Snail Expression Rate (%) (Snail; 10 μM) | Solubility in water (%), hydrochloride salt [1]
Cl.N=C(NC(=N)N1CCCCC1)Nc1cccc(Cl)c1 [Example 20, N1-piperidine-N5-(3-chloro)phenyl biguanide hydrochloride] | 57.6% | 8.7% | 
Cl.N=C(NC(=N)N1CCCCC1)Nc1ccc(C(F)(F)F)cc1 [Example 27, N1-piperidine-N5-(4-trifluoromethyl)phenyl biguanide hydrochloride] | 52.7% | 13.2% | 20%
Cl.N=C(NC(=N)N1CCCC1)Nc1ccc(C(F)(F)F)cc1 [Example 26, N1-pyrrolidine-N5-(4-trifluoromethyl)phenyl biguanide hydrochloride] | 57.2% | 14.6% | 80%
Cl.N=C(NC(=N)N1CCCCCC1)Nc1cccc(Cl)c1 [Example 21, N1-azepane-N5-(3-chloro)phenyl biguanide hydrochloride] | 83.5% | 29.8% | 
